Data published in patent publication US20240018146A1, “COMPOSITIONS AND METHODS OF USING THE SAME FOR TREATMENT OF NEURODEGENERATIVE AND MITOCHONDRIAL DISEASE” (MITOKININ, INC., priority 2020, published 2024).
Like-named read-outs stand apart in the source and are kept apart here.

Tests used:
HeLa MKYP cells [1] = assay: Human mitophagy assay (HeLa mKeima assay, FACS); assay type: cell-based
Description: Briefly, HeLa MKYP cells were plated at 10,000 cells/well in 96 well plates along with compounds at various concentrations. Following 16 hrs of incubation, cells were treated with 1 uM FCCP/oligomycin for 6 hours, then analyzed via FACS for the presence of mitochondria in lysosomes (as determined by an emissions spectrum shift from the pH-sensitive mtKeima tag).
Briefly, HeLa cells expressing a mitophagy indicator (mtKeima) protein were treated with […] of FCCP and Oligomycin followed by the specified dose of compound, then analyzed by FACS to quantify the percentage of cells undergoing mitophagy.

HeLa MKYP cells [2] = assay: Cell death measured by DAPI staining, with 1 μM FCCP/oligomycin or no toxin (no FO); assay type: cell-based
Description: EP-0035985, EP-0037821, EP-0038098, and EP-0038099 in the presence of 1 μM FCCP/oligomycin or with no toxin (no FO) for 6 hrs. H2O2 treatment was performed as a control for cell death as measured by DAPI staining.
EP-0035985, EP-0038461, EP-0038463, and EP-0038503 in the presence of 1 μM FCCP/oligomycin or with no toxin (no FO) for 6.5 hrs. H2O2 treatment was performed as a control for cell death as measured by DAPI staining.
EP-0035985, EP-0038504, EP-0038508, and EP-0038521 in the presence of 1 μM FCCP/oligomycin or with no toxin (no FO) for 6.5 hrs. H2O2 treatment was performed as a control for cell death as measured by DAPI staining.
EP-0035985, EP-0038461, EP-0038463, EP-0038503, EP-0038504, EP-0038508, and EP-0038521 in the presence of 1 μM FCCP/oligomycin or with no toxin (no FO) for 6.5 hrs. H2O2 treatment was performed as a control for cell death as measured by DAPI staining.

[3] = Homo sapiens, HeLa, read-out: Mitophagy induction EC50
[4] = read-out: Mitophagy induction EC50

Structure (SMILES)	EC50 (HeLa MKYP cells [1]; [3])	Highest safe dose (cytotoxicity; no FO; safe means DAPI+ <20%) (HeLa MKYP cells [2]; no FO)	Max % death with 1 μM FO (HeLa MKYP cells [2])	EC50 (HeLa MKYP cells [1]; [4])	EC50 (HeLa MKYP cells [1]; Homo sapiens, HeLa, HeLa mKeima assay, read-out: Mitophagy EC50 (HeLa mKeima assay))	Max cell death at 25 μM compound, 1 uM FO (%) (HeLa MKYP cells [2]; 25 μM compound, 1 uM FO)	Cell death at 25 μM (no FO) (%) (HeLa MKYP cells [2]; 25 μM compound, no FO)
c1ccc2c(c1)OC[C@@H](N1CCOCC1)[C@@H]2Nc1ncnc2[nH]c(C3CC3)cc12 (single isomer, unassigned) [EP-0040181]	> 25 µM	25.0 µM	5.9%	–	–	–	–
c1ccc2c(c1)CC[C@H](C1CCOCC1)[C@@H]2Nc1ncnc2[nH]c(C3CC3)cc12 [EP-0040627]	24.4 µM	25.0 µM	4.8%	–	–	–	–
CN1CCN([C@H]2CCc3ccccc3[C@@H]2Nc2ncnc3[nH]c(C(F)(F)F)cc23)CC1 (single isomer, unassigned) [EP-0040578]	3.54 µM	25.0 µM	14.4%	–	–	–	–
CC(C)(O)C1CN([C@H]2COc3ccccc3[C@@H]2Nc2ncnc3[nH]c(C(F)(F)F)cc23)C1 (single isomer, unassigned) [EP-0041490]	> 25 µM	25.0 µM	3.4%	–	–	–	–
COC1(C)CN(C2COc3ccccc3C2Nc2ncnc3[nH]c(C(F)(F)F)cc23)C1 (single isomer, unassigned) [EP-0041300]	4.35 µM	25.0 µM	11.1%	–	–	–	–
C[C@@]12COC[C@]1(C)CN(C1CCc3ccccc3C1Nc1ncnc3[nH]c(C(F)(F)F)cc13)C2 (stereo partly drawn) [EP-0040523]	2.73 µM	25.0 µM	39.0%	–	–	–	–
c1ccc2c(c1)CC[C@@H](N1C[C@H]3COC[C@H]3C1)[C@@H]2Nc1ncnc2[nH]c(C3CC3)cc12 (single isomer, unassigned) [EP-0040249]	0.09 µM	25.0 µM	12.3%	–	–	–	–
Cc1ccc2c(c1)OC[C@H](N1CCOCC1)[C@H]2Nc1ncnc2[nH]c(C(F)(F)F)cc12 (racemic) [EP-0041045]	1.56 µM	25.0 µM	7.7%	–	–	–	–
c1ccc2c(c1)OC[C@@H](N1CCOCC1)[C@H]2Nc1ncnc2[nH]c(C3CC3)cc12 [EP-0040140]	8.71 µM	25.0 µM	11.1%	–	–	–	–
FC(F)(F)c1cc2c(N[C@H]3c4ccccc4OC[C@H]3N3CCOCC3)ncnc2[nH]1 [EP-0040084]	15.6 µM	25.0 µM	3.7%	–	–	–	–
CN1CCN([C@@H]2CCc3ccccc3[C@H]2Nc2ncnc3[nH]c(C(F)(F)F)cc23)CC1 (single isomer, unassigned) [EP-0040579]	9.02 µM	25.0 µM	20.3%	–	–	–	–
C[C@H]1CN([C@@H]2COc3ccccc3[C@H]2Nc2ncnc3[nH]c(C4CC4)cc23)CCO1 [EP-0041000]	1.32 µM	25.0 µM	6.5%	–	–	–	–
FC(F)(F)c1cc2c(N[C@H]3c4ccccc4CC[C@@H]3OCC3CCOCC3)ncnc2[nH]1 (single isomer, unassigned) [EP-0038523]	4.45 µM	25.0 µM	3.3%	–	–	–	–
CC(C)OC1CN([C@H]2COc3ccccc3[C@@H]2Nc2ncnc3[nH]c(C(F)(F)F)cc23)C1 [EP-0041465]	6.85 µM	25.0 µM	4.6%	–	–	–	–
Fc1cccc2c1CC[C@H](N1C[C@H]3COC[C@H]3C1)[C@H]2Nc1ncnc2[nH]c(C(F)(F)F)cc12 (single isomer, unassigned) [EP-0040505]	13.5 µM	25.0 µM	14.3%	–	–	–	–
FC(F)(F)c1cc2c(N[C@H]3c4ccc(Br)cc4OC[C@@H]3N3CCOCC3)ncnc2[nH]1 (single isomer, unassigned) [EP-0041021]	3.38 µM	25.0 µM	13.2%	–	–	–	–
C[C@@H]1COCCN1[C@@H]1CCc2ccccc2[C@H]1Nc1ncnc2[nH]c(C(F)(F)F)cc12 (single isomer, unassigned) [EP-0040195]	18.5 µM	25.0 µM	12.0%	–	–	–	–

Structure (SMILES)	EC50 (HeLa MKYP cells [1]; [3])	Highest safe dose (cytotoxicity; no FO; safe means DAPI+ <20%) (HeLa MKYP cells [2]; no FO)	Max % death with 1 μM FO (HeLa MKYP cells [2])	EC50 (HeLa MKYP cells [1]; [4])	EC50 (HeLa MKYP cells [1]; Homo sapiens, HeLa, HeLa mKeima assay, read-out: Mitophagy EC50 (HeLa mKeima assay))	Max cell death at 25 μM compound, 1 uM FO (%) (HeLa MKYP cells [2]; 25 μM compound, 1 uM FO)	Cell death at 25 μM (no FO) (%) (HeLa MKYP cells [2]; 25 μM compound, no FO)
Fc1ccc2c(c1)OC[C@H](N1C[C@H]3COC[C@H]3C1)[C@H]2Nc1ncnc2[nH]c(C3CC3)cc12 (single isomer, unassigned) [EP-0040326]	–	25.0 µM	3.6%	> 25 µM	–	–	–
Fc1ccc2c(c1)OC[C@H](N1C[C@@H]3COC[C@H]3C1)[C@H]2Nc1ncnc2[nH]c(C3CC3)cc12 (single isomer, unassigned) [EP-0040873]	–	25.0 µM	4.3%	> 25 µM	–	–	–
OC[C@H]1CN([C@H]2COc3ccccc3[C@@H]2Nc2ncnc3[nH]c(C(F)(F)F)cc23)CCO1 (single isomer, unassigned) [EP-0041558]	–	25.0 µM	10.6%	1.42 µM	–	–	–
OC[C@@H]1CCCN1[C@H]1CCc2ccccc2[C@@H]1Nc1ncnc2[nH]c(C(F)(F)F)cc12 (single isomer, unassigned) [EP-0039732]	> 25 µM	25.0 µM	6.2%	–	–	–	–
COC[C@@H]1CCN(C2COc3ccccc3C2Nc2ncnc3[nH]c(C4CC4)cc23)C1 (single isomer, unassigned) [EP-0041515]	–	25.0 µM	5.6%	5.06 µM	–	–	–
N#CC1CN([C@H]2COc3ccccc3[C@@H]2Nc2ncnc3[nH]c(C(F)(F)F)cc23)C1 [EP-0041332]	1.54 µM	25.0 µM	11.7%	–	–	–	–
FC(F)(F)c1cc2c(N[C@H]3c4ccccc4OC[C@@H]3N3CCOCC3)ncnc2[nH]1 [EP-0040078]	1.9 µM	25.0 µM	18.5%	–	1.77 µM	18%	5.92%
COC[C@H]1CCCN1[C@H]1COc2ccccc2[C@@H]1Nc1ncnc2[nH]c(C(F)(F)F)cc12 (single isomer, unassigned) [EP-0041492]	1.78 µM	25.0 µM	8.3%	–	–	–	–
COC[C@H]1CCCN1[C@H]1COc2ccccc2[C@@H]1Nc1ncnc2[nH]c(C(F)(F)F)cc12 [EP-0041553]	15.2 µM	25.0 µM	5.7%	–	–	–	–
FC(F)(F)c1cc2c(N[C@H]3c4ccccc4OC[C@@H]3C3CCOCC3)ncnc2[nH]1 (single isomer, unassigned) [EP-0040699]	> 25 µM	25.0 µM	3.7%	–	–	–	–
COC1CN([C@H]2COc3cc(F)ccc3[C@@H]2Nc2ncnc3[nH]c(C(F)(F)F)cc23)C1 (single isomer, unassigned) [EP-0041089]	1.97 µM	25.0 µM	10.2%	–	–	–	–
FC(F)(F)c1cc2c(N[C@@H]3c4ccccc4CC[C@@H]3C3CCOCC3)ncnc2[nH]1 [EP-0040558]	> 25 µM	25.0 µM	3.0%	–	–	–	–
OC1CC2(C1)CN([C@H]1COc3ccccc3[C@@H]1Nc1ncnc3[nH]c(C(F)(F)F)cc13)C2 (single isomer, unassigned) [EP-0040725]	> 25 µM	25.0 µM	3.4%	–	–	–	–
OC[C@H]1CCN(C2CCc3ccccc3C2Nc2ncnc3[nH]c(C(F)(F)F)cc23)C1 (mixture of isomers) [EP-0040121]	1.29 µM	25.0 µM	33.6%	–	–	–	–
FC(F)(F)c1cc2c(N[C@H]3c4ccccc4OC[C@H]3C3CCOCC3)ncnc2[nH]1 [EP-0040586]	> 25 µM	8.3 µM	16.9%	–	–	–	–
[O-][S+]1CCN(C2CCc3ccccc3C2Nc2ncnc3[nH]c(C4CC4)cc23)CC1 (stereo not drawn) [EP-0040665]	9.86 µM	25.0 µM	3.7%	–	–	–	–
FC1COCCC1[C@H]1COc2ccccc2[C@@H]1Nc1ncnc2[nH]c(C(F)(F)F)cc12 (single isomer, unassigned) [EP-0041323]	–	25.0 µM	9.2%	11 µM	–	–	–
